Where two headings read alike, the source gives them in different places. No end group written: not given here.
Tests used:
[1] = tested on: Staphylococcus aureus (ATCC 6538P)
Method: (§1) A microdilution method was used [8]: paired dilutions of compounds in LB broth, arranged in 96-well plates were inoculated with around 1 × 10^5 CFU Pseudomonas aeruginosa (ATCC 9027) or Staphylococcus aureus (ATCC 6538P). After overnight incubation at 37C, absorbance at 620 nm (A620) was assessed, and the IC50 concentrations determined.

[2] = tested on: Pseudomonas aeruginosa (ATCC 9027)
Method: as §1

HSV1 [3] = tested on: HSV1
TZMbl cells = assay type: cell-based
Method: Cytotoxicity assessment - Vero cells growing in 96-well plates were treated with various peptide concentrations. After 48 h incubation, 25 μl 3-(4,5-dimethylthiazol-2-yl)-2,5-diphenyltetrazolium bromide (MTT) in 0.5% medium was added (1 mg/ml final concentration), and cells incubated for 2 h. Growth medium was then carefully removed and formazan crystals solubilised in […] of DMSO, prior to reading absorbance at 570 nm (A570). TZMbl cytotoxicity was assessed using the WST-1 cell proliferation reagent (Roche). Experiments were performed as for the anti-infectivity assay, WST-1 was diluted 1/10 into each well at various time points and cell proliferation was measured by absorbance at 450 nm.

human red blood cells [4] = assay type: cell-based
Method: Freshly washed human red blood cells were added to peptides diluted in PBS in 96-well plates (20 × 10^6 red blood cells were added per well). After 2 h incubation at 37°C, plates were centrifuged (3000 g, 5 min) and 80 μl of supernatant transferred to further 96-well plates containing 0.75% ammonium hydroxide in distilled water.

human red blood cells [5] = tested on: human red blood cells; design: method as in PMID 17681018; conditions: cited from earlier work
HSV1 [6] = conditions: earlier reports, organism not specified at this place; ref [9]; cited from earlier work
Source text: In the second group of peptides, apoEdp - used as a positive control - was active against all three organisms, as found in our previous studies.

[7] = read-out: IC50 Concentration (μM) S. aureus, turbidity (A620) of serial dilutions in LB broth, ~1 × 10^5 CFU, overnight 37C, averages for several experiments
[8] = read-out: IC50 Concentration (μM) P. aeruginosa, turbidity (A620) of serial dilutions in LB broth, ~1 × 10^5 CFU, overnight 37C, averages for several experiments
[9] = read-out: IC50 Concentration (μM) HSV1, plaque reduction assay, Vero cells, 90 PFU/well, peptide present 1 h, plaques counted after 2 d, averages for several experiments

| Substance | IC50 [1, 7] | IC50 [2, 8] | IC50 (HSV1 [3]; [9]) | IC50 (HSV1 [3]; 1 h) | further results |
| --- | --- | --- | --- | --- | --- |
| KFMETVAEKALQEYRK [apoJ409-424] | > 54 µM | > 54 µM | > 40 µM |  |  |
| RLTRKRGLKRLTRKRGLK [apoB(3359-3367)dp] | > 54 µM | > 54 µM |  | > 40 µM |  |
| NFHAMFQPFLEMIHEAQQ [apoJ219-236] | > 54 µM | > 54 µM | > 40 µM |  |  |
| GERLRARMEGERLRARME [apoE(211-219)dp] | > 54 µM | > 54 µM |  | > 40 µM |  |
| WRWRKRWRKWRWRKRWRK [apoBdpL/R-W] |  |  |  |  | toxicity against TZMbl cells (TZMbl cells): no detectable toxicity; haemolytic activity (human red blood cells [4]): non-haemolytic |
| DWLKAFYDKVAEKLKEAF [apoA1-18A, reference compound] |  |  |  |  | IC50 (HSV1 [3]; read-out: IC50 concentration against HSV1, plaque reduction assay, 95%CI 31.9 - 41.1 μM): 36.5 µM |
| ARLAEYHAKATEHLSTLSEKAK [apoA1-H8] | > 54 µM | > 54 µM | > 40 µM |  |  |
| CKNKEKKCCKNKEKKC [apoH(281-288)dp] | > 54 µM | > 54 µM | > 40 µM |  |  |
| VTDYGKDLMEKVKEWLNS [apoAII 18-30+] | > 54 µM | > 54 µM | > 40 µM |  |  |
| RDADDLQKRRDADDLQKR [apoE(150-158)dp] | > 54 µM | > 54 µM |  | > 40 µM |  |
| PVLDEFREKLNEELEALKQKMK [apoA1-consensus] | > 54 µM | > 54 µM | > 40 µM |  |  |
| PYSDELRQRLAARLEALKENGG [apoA1-H7] | > 54 µM | > 54 µM | > 40 µM |  |  |
| PLGEEMRDRARAHVDALRTHLA [apoA1-H6] | > 54 µM | > 54 µM | > 40 µM |  |  |
| LRKLRKRLLLRKLRKRLL-NH2 [apoE(141-149)dp, reference compound] |  |  |  | 16.5 µM | IC50 ([1]; ATCC 6538): 9 µM; IC50 ([2]; ATCC 9027): 2.5 µM; haemolytic activity (human red blood cells [5]): non-haemolytic |
| LQVAERLTRKYNELLKSYQ [apoJ311-329] | > 54 µM | > 54 µM | > 40 µM |  |  |
| apoE(141-149): nonomer peptide of the apoE receptor binding region (LRKLRKRLL; UniProt P02649 159-167, looked up, fragment) |  |  |  |  | anti-infective activity (in words) (HSV1 [6]): inactive |
| RLRARMEEMRLRARMEEM [apoE(213-221)dp] | > 54 µM | > 54 µM |  | > 40 µM |  |
| HMLDVMQDHFSRASSIIDEL [apoJ151-170] | > 54 µM | > 54 µM |  | > 40 µM |  |
| VTDYGKDLMEKVKSPELQ [apoAII 18-35] | > 54 µM | > 54 µM | > 40 µM |  |  |
| PYLDDFQKKWQEEMELYRQKVE [apoA1-H4] | > 54 µM | > 54 µM | > 40 µM |  |  |
| LRKLRKRLLRDADDLQKRLA [apoE141-162] | > 54 µM | > 54 µM |  | > 40 µM |  |
| RALVDTLKFVTQAEGAK [apoB1000-1016] | > 54 µM | > 54 µM | > 40 µM |  | antiviral activity against HSV1 (in words) (HSV1 [3]; plaque reduction assay in Vero cells): inactive |
